Results taken from patent US20230414634A1, “METHODS FOR TREATING CHOLESTATIC PRURITUS” (GlaxoSmithKline Intellectual Property (No.2) Limited, priority 2020, published 2023).

What was measured:
[1] = test system: PBC patients with pruritus; assay: Phase 2a crossover clinical study BAT117213 (NCT01899703) of GSK672 versus placebo; type: in vivo, human
Experimental: A Phase 2a clinical study (NCT01899703; GSK study BAT117213) was carried out to investigate the safety, tolerability, and effect of repeat doses of GSK672 administration in patients with cholestatic pruritus in Primary Biliary Cholangitis (PBC). The results of this study have been summarized and published on clintrials.gov (NCT01899703).
A phase 2 double-blind, randomised, placebo controlled, crossover trial in PBC patients with pruritus was conducted at two specialist PBC centres in the United Kingdom between March 2014 and November 2015. Subjects received oral 45 to 90 mg GSK672 (45 mg BID for Day 1 to 3 and 90 mg BID for Days 4 to 14) and placebo twice daily for 14 days, in a crossover sequence.
The three different itch rating scales were employed: 10-point NRS, 5D Itch Scale and PBC-40.
The primary end point was safety (measured by clinical and laboratory assessments and adverse events (AEs)) and tolerability. Secondary end points were: i) changes in pruritus scores from baseline measured using a 0 to 10 numerical rating scale (NRS) completed twice daily and PBC-40 itch domain scores and 5-D itch scale and ii) changes in serum levels of total bile acids and C4. Serum levels of ATX activity and FGF-19 were measured at baseline and at the end of each treatment period.
An analysis was carried out as to the effect of 90 mg BID. No analysis was carried out as to the effect of 45 mg BID as this dose was administered for Days 1 to 3 in order to ease patients onto the higher 90 mg BID dose.

[2] = test system: patients with PBC and cholestatic pruritus; assay: GLIMMER Phase 2b study: safety and tolerability (adverse events, Safety population); type: in vivo, human
Excerpt: Secondary and exploratory endpoints: itch efficacy, quality of life (PBC-40) and pharmacodynamic biomarkers, and safety and tolerability.
In the GLIMMER trial, once daily dosing (QD) was expected to be the optimum dosing regimen. The rationale for QD was as follows: i) it was considered optimal to administer one dose in the morning alone, avoiding administering a dose at night in order to minimise the known side effect of diarrhoea during the night, and ii) one dose per day is generally expected to result in a better patient compliance. The tablet sizes employed in the trial were 10 mg and 45 mg which allowed administration of different dose sizes by combining tablets.
As illustrated in FIG. 1(i), the initial dose sizes were: placebo, 20 mg QD, 90 mg QD and 180 mg QD. Also included was a dose size of 90 mg BID which was evaluated in the earlier Phase 2a study. […] This warranted a further investigation of twice daily dosing. It was decided to add a new 40 mg BID group, and to cease the 20 mg QD dose.

SMILES: CCCC[C@]1(CC)CS(=O)(=O)c2cc(CNC(CC(=O)O)CC(=O)O)c(OC)cc2[C@@H](c2ccccc2)N1 [linerixibat]
- pruritus severity compared to placebo (NRS, 5D Itch Scale and PBC-40) ([1]; 90 mg BID, 22 subjects with PBC pruritus): statistically significant decrease
- reduction in itch intensity as compared to placebo ([1]; 90 mg BID, 14 day crossover): 71%
- itch intensity, PBC-40 itch domain, compared to placebo ([1]; 90 mg BID, 95% CI: −0.94 to −0.24): −0.59
- itch intensity, 5-D itch, compared to placebo ([1]; 90 mg BID, 95% CI: −6.60 to −2.49): −4.55
- itch intensity as measured by NRS, compared to placebo ([1]; 90 mg BID, 95%CI: −2.48 to −0.68): −1.58
- fatigue, sleep disturbance and overall disability compared to placebo ([1]; human, in vivo): Decreases
- time at which reduction of pruritus severity occurred ([1]; human, in vivo): within the first week
- tolerability ([1]; two weeks of oral twice daily 90 mg): well tolerated
- Abdominal distension: number of patients ([2]; 20 mg QD (N = 14)): 0
- Abdominal pain lower: % of patients ([2]; 20 mg QD (N = 14)): (7%)
- Abdominal pain lower: number of patients ([2]; 20 mg QD (N = 14)): 1
- Abdominal pain upper: % of patients ([2]; 20 mg QD (N = 14)): (14%)
- Abdominal pain upper: number of patients ([2]; 20 mg QD (N = 14)): 2
- Abdominal pain: % of patients ([2]; 20 mg QD (N = 14)): (14%)
- Abdominal pain: number of patients ([2]; 20 mg QD (N = 14)): 2
- Adverse events Main Study, ANY EVENT: % of patients ([2]; 20 mg QD (N = 14)): (57%)
- Adverse events Main Study, ANY EVENT: number of patients ([2]; 20 mg QD (N = 14)): 8
- Diarrhoea: % of patients ([2]; 20 mg QD (N = 14)): (36%)
- Diarrhoea: number of patients ([2]; 20 mg QD (N = 14)): 5
- Dry mouth: % of patients ([2]; 20 mg QD (N = 14)): (14%)
- Dry mouth: number of patients ([2]; 20 mg QD (N = 14)): 2
- Flatulence: % of patients ([2]; 20 mg QD (N = 14)): (7%)
- Flatulence: number of patients ([2]; 20 mg QD (N = 14)): 1
- Gastrointestinal disorders, Any event: % of patients ([2]; 20 mg QD (N = 14)): (50%)
- Gastrointestinal disorders, Any event: number of patients ([2]; 20 mg QD (N = 14)): 7
- Gastrooesophageal reflux disease: % of patients ([2]; 20 mg QD (N = 14)): (7%)
- Gastrooesophageal reflux disease: number of patients ([2]; 20 mg QD (N = 14)): 1
- Nausea: % of patients ([2]; 20 mg QD (N = 14)): (7%)
- Nausea: number of patients ([2]; 20 mg QD (N = 14)): 1
- Vomiting: % of patients ([2]; 20 mg QD (N = 14)): (7%)
- Vomiting: number of patients ([2]; 20 mg QD (N = 14)): 1
- gastrointestinal tolerability data ([2]; 40 mg BID versus higher doses): favored 40 mg BID dosing over higher doses
- Abdominal distension: number of patients ([2]; 90 mg BID (N = 13)): 0
- Abdominal pain upper: number of patients ([2]; 90 mg BID (N = 13)): 0
- Abdominal pain: number of patients ([2]; 90 mg BID (N = 13)): 1
- Adverse events Main Study, ANY EVENT: % of patients ([2]; 90 mg BID (N = 13)): (69%)
- Adverse events Main Study, ANY EVENT: number of patients ([2]; 90 mg BID (N = 13)): 9
- Diarrhoea: number of patients ([2]; 90 mg BID (N = 13)): 5
- Dry mouth: number of patients ([2]; 90 mg BID (N = 13)): 0
- Flatulence: number of patients ([2]; 90 mg BID (N = 13)): 0
- Gastrointestinal disorders, Any event: number of patients ([2]; 90 mg BID (N = 13)): 5
- Gastrooesophageal reflux disease: number of patients ([2]; 90 mg BID (N = 13)): 0
- Nausea: % of patients ([2]; 90 mg BID (N = 13)): (15%)
- Nausea: number of patients ([2]; 90 mg BID (N = 13)): 2
- Vomiting: % of patients ([2]; 90 mg BID (N = 13)): (8%)
- Vomiting: number of patients ([2]; 90 mg BID (N = 13)): 1
- tolerability at interim analysis ([2]; 90 mg BID versus 180 mg QD): better tolerated than 180 mg QD
- Abdominal distension: % of patients ([2]; 90 mg QD (N = 12)): (8%)
- Abdominal distension: number of patients ([2]; 90 mg QD (N = 12)): 1
- Abdominal pain lower: % of patients ([2]; 90 mg QD (N = 12)): (8%)
- Abdominal pain lower: number of patients ([2]; 90 mg QD (N = 12)): 1
- Abdominal pain: % of patients ([2]; 90 mg QD (N = 12)): (8%)
- Abdominal pain: number of patients ([2]; 90 mg QD (N = 12)): 1
- Adverse events Main Study, ANY EVENT: % of patients ([2]; 90 mg QD (N = 12)): (75%)
- Adverse events Main Study, ANY EVENT: number of patients ([2]; 90 mg QD (N = 12)): 9
- Diarrhoea: % of patients ([2]; 90 mg QD (N = 12)): (50%)
- Diarrhoea: number of patients ([2]; 90 mg QD (N = 12)): 6
- Dry mouth: % of patients ([2]; 90 mg QD (N = 12)): (8%)
- Dry mouth: number of patients ([2]; 90 mg QD (N = 12)): 1
- Flatulence: number of patients ([2]; 90 mg QD (N = 12)): 0
- Gastrointestinal disorders, Any event: % of patients ([2]; 90 mg QD (N = 12)): (50%)
- Gastrointestinal disorders, Any event: number of patients ([2]; 90 mg QD (N = 12)): 6
- Gastrooesophageal reflux disease: number of patients ([2]; 90 mg QD (N = 12)): 0
- Nausea: number of patients ([2]; 90 mg QD (N = 12)): 0
- Vomiting: number of patients ([2]; 90 mg QD (N = 12)): 0
- Abdominal distension: % of patients ([2]; 180 mg QD (N = 17)): (6%)
- Abdominal pain lower: number of patients ([2]; 180 mg QD (N = 17)): 0
- Abdominal pain upper: % of patients ([2]; 180 mg QD (N = 17)): (6%)
- Abdominal pain: number of patients ([2]; 180 mg QD (N = 17)): 5
- Adverse events Main Study, ANY EVENT: % of patients ([2]; 180 mg QD (N = 17)): (82%)
- Adverse events Main Study, ANY EVENT: number of patients ([2]; 180 mg QD (N = 17)): 14
- Diarrhoea: number of patients ([2]; 180 mg QD (N = 17)): 10
- Dry mouth: number of patients ([2]; 180 mg QD (N = 17)): 0
- Flatulence: % of patients ([2]; 180 mg QD (N = 17)): (6%)
- Gastrointestinal disorders, Any event: number of patients ([2]; 180 mg QD (N = 17)): 14
- Gastrooesophageal reflux disease: number of patients ([2]; 180 mg QD (N = 17)): 0
- Nausea: % of patients ([2]; 180 mg QD (N = 17)): (6%)
- Nausea: number of patients ([2]; 180 mg QD (N = 17)): 1
- Vomiting: % of patients ([2]; 180 mg QD (N = 17)): (12%)
- Vomiting: number of patients ([2]; 180 mg QD (N = 17)): 2
- most common AE ([2]; in vivo): diarrhea
